pIC50: −log10 of the molar value. Where two headings read alike, the source gives them in different places.
Tests used:
Format in all cases: cell-based
ATR kinase = target: T1, ATR kinase (Homo sapiens, UniProt Q13535); assay: Assay b) ATR cellular potency (pChk1 Ser345 in HT29 cells after 4NQO); details: HT29 cells, 4NQO, pChk1 Ser345; may be geometric mean of several tests; read-out: Assay b) ATR Cell IC50
T1 construct: measuring a decrease in phosphorylation of Chk1 (Ser 345) in HT29 cells; endogenous in cells; host or cells: HT29 cells (ECACC #85061109)
Excerpt: Assay b): ATR Cellular Potency
ATR is a PI 3-kinase-related kinase which phosphorylates multiple substrates on serine or threonine residues in response to DNA damage during or replication blocks. Chk1, a downstream protein kinase of ATR, plays a key role in DNA damage checkpoint control. Activation of Chk1 involves phosphorylation of Ser317 and Ser345 (the latter regarded as the preferential target for phosphorylation/activation by ATR).
The following morning compound of Formula (I) in 100% DMSO were added to assay plates by acoustic dispensing. After 1 h incubation at 37° C. and 5% CO2. 40 nl of 3 mM 4NQO in 100% DMSO was added to all wells by acoustic dispensing, except minimum control wells which were left untreated with 4NQO to generate a null response control. Plates were returned to the incubator for a further 1 h. […] Then 20 μl of 0.1% Triton X100 in PBS was added and incubated for 10 minutes at r.t., to permeabalise cells. Then the plates were washed once with 50 μl/well PBS, using a Biotek EL405 plate washer.
After 2 h incubation at r.t., the plates were washed three times with 50 μl/well PBS, using a Biotek EL405 plate washer, and plates were then sealed with black plate seals until read. Plates were read using an ArrayScan VTI instrument, using an XF53 filter with 10× objective.

ATM kinase = target: T2, ATM kinase (Homo sapiens, UniProt Q13315); assay: Assay a) ATM cellular potency (pATM Ser1981 in X-ray irradiated HT29 cells); details: HT29 cells, 1 h compound, X-ray ~600 cGy, pATM Ser1981; may be geometric mean of several tests; read-out: Assay a) ATM Cell IC50
T2 construct: endogenous in cells; host or cells: HT29 cells (ECACC #85061109)
Description: The following assays were used to measure the effects of the compounds of the present invention: a) ATM cellular potency assay; b) PI3K cellular potency assay; c) mTOR cellular potency assay; d) ATR cellular potency assay. During the description of the assays, generally: • i. […] IC50 values were calculated using a smart fitting model in Genedata. […] Assay a): ATM Cellular Potency Rationale:
Most ATM molecules in the cell are rapidly phosphorylated on this site after doses of radiation as low as 0.5 Gy, and binding of a phosphospecific antibody is detectable after the introduction of only a few DNA double-strand breaks in the cell.
The rationale of the pATM assay is to identify inhibitors of ATM in cells. HT29 cells are incubated with test compounds for 1 hr prior to X-ray-irradiation. 1 h later the cells are fixed and stained for pATM (Ser1981). The fluorescence is read on the arrayscan imaging platform.
The following morning compounds of Formula (I) in 100% DMSO were added to assay plates by acoustic dispensing. After 1 h incubation at 37° C. and 5% CO2, plates (up to 6 at a time) were irradiated using the X-RAD 320 instrument (PXi) with equivalent to ˜600 cGy. Plates were returned to the incubator for a further 1 h. […] Then 20 μl of 0.1% Triton X100 in PBS was added and incubated for 20 minutes at r.t., to permeabalise cells. Then the plates were washed once with 50 μl/well PBS, using a Biotek EL405 plate washer.
After 1 h incubation at r.t., the plates were washed three times with 50 μl/well PBS, using a Biotek EL405 plate washer, and plates were sealed and kept in PBS at 4° C. until read. Plates were read using an ArrayScan VTI instrument, using an XF53 filter with 10× objective.

PI3K-α = PI3K-α (Homo sapiens, UniProt P42336); assay: Assay c) PI3K cellular potency (phospho-Akt T308 ELISA in BT474 cells); details: BT474 cells, 2 h, phospho-AKT T308; may be geometric mean of several tests; read-out: Assay c) PI3Kα Cell IC50
Excerpt: Assay c): PI3K Cellular Potency
This assay was used to measure PI3K-α inhibition in cells. PDK1 was identified as the upstream activation loop kinase of protein kinase B (Akt 1), which is essential for the activation of PKB. Activation of the lipid kinase phosphoinositide 3 kinase (PI3K) is critical for the activation of PKB by PDK1.
Following ligand stimulation of receptor tyrosine kinases, PI3K is activated, which converts PIP2 to PIP3, which is bound by the PH domain of PDK1 resulting in recruitment of PDK1 to the plasma membrane where it phosphorylates AKT at Thr308 in the activation loop.
The aim of this cell-based mode of action assay is to identify compounds that inhibit PDK activity or recruitment of PDK1 to membrane by inhibiting PI3K activity. Phosphorylation of phospho-Akt (T308) in BT474c cells following treatment with compounds for 2 h is a direct measure of PDK1 and indirect measure of PI3K activity.
BT474 cells (human breast ductal carcinoma, ATCC HTB-20) were seeded into black 384 well plates (Costar, #3712) at a density of 5600 cells/well in DMEM containing 10% FBS and 1% glutamine and allowed to adhere overnight.
The following morning compounds in 100% DMSO were added to assay plates by acoustic dispensing. After a 2 h incubation at 37° C. and 5% CO2, the medium was aspirated and the cells were lysed with a buffer containing 25 mM Tris, 3 mM EDTA, 3 mM EGTA, 50 mM sodium fluoride, 2 mM Sodium orthovanadate, 0.27M sucrose, 10 mM β-glycerophosphate, 5 mM sodium pyrophosphate, 0.5% Triton X-100 and complete protease inhibitor cocktail tablets (Roche #04 693 116 001, used 1 tab per 50 ml lysis buffer).
After 20 minutes, the cell lysates were transferred into ELISA plates (Greiner #781077) which had been pre-coated with an anti total-AKT antibody in PBS buffer and non-specific binding was blocked with 1% BSA in PBS containing 0.05% Tween 20. Plates were incubated over night at 4° C. The next day the plates were washed with PBS buffer containing 0.05% Tween 20 and further incubated with a mouse monoclonal anti-phospho AKT T308 for 2 h. Plates were washed again as above before addition of a horse anti-mouse-HRP conjugated secondary antibody. Following a 2 h incubation at r.t., plates were washed and QuantaBlu substrate working solution (Thermo Scientific #15169, prepared according to provider's instructions) was added to each well. The developed fluorescent product was stopped after 60 minutes by addition of Stop solution to the wells. Plates were read using a Tecan Safire plate reader using 325 nm excitation and 420 nm emission wavelengths respectively. Except where specified, reagents contained in the Path Scan Phospho AKT (Thr308) sandwich ELISA kit from Cell Signalling (#7144) were used in this ELISA assay.

mTOR = target: T3, mTOR (Homo sapiens, UniProt P42345); assay: Assay d) mTOR cellular potency (phospho-AKT Ser473 in MDA-MB-468 cells)
T3 construct: endogenous in cells; host or cells: MDA-MB-468 cells (ATCC HTB 132)
Description: Assay d): mTOR Cellular Potency
This assay was used to measure mTOR inhibition in cells. The aim of the phospho-AKT cell based mechanism of action assay using the Acumen Explorer is to identify inhibitors of either PI3Kα or mTOR-Rictor (Rapamycin insensitive companion of mTOR). This is measured by any decrease in the phosphorylation of the Akt protein at Ser473 (AKT lies downstream of PI3Kα in the signal transduction pathway) in the MDA-MB-468 cells following treatment with compound. Method Details:
MDA-MB-468 cells (human breast adenocarcinoma #ATCC HTB 132) were seeded at 1500 cells/well in 40 μl of DMEM containing 10% FBS and 1% glutamine into Greiner 384 well black flat-bottomed plates. Cell plates were incubated for 18 h in a 37° C. incubator before dosing with compounds of Formula (I) in 100% DMSO using acoustic dispensing. Compounds were dosed in a 12 point concentration range into a randomised plate map. Control wells were generated either by dosing of 100% DMSO (max signal) or addition of a reference compound (a PI3K-β inhibitor) that completely eliminated the pAKT signal (min control). Compounds were then tested by one of two assay protocols A or B:
Plates were incubated at 37° C. for 2 h; cells were then fixed by the addition of 10 μl of a 3.7% formaldehyde solution. After 30 minutes the plates were washed with PBS using a Tecan PW384 plate washer. Wells were blocked and cells permeabilised with the addition of 40 μl of PBS containing 0.5% Tween20 and 1% Marvel™ (dried milk powder) and incubated for 60 minutes at r.t. The plates were washed with PBS containing 0.5% (v/v) Tween20 and 20 μl rabbit anti-phospho AKT Ser473 (Cell Signalling Technologies, #3787) in same PBS-Tween+1% Marvel™ was added and incubated overnight at 4° C.
Plates were washed 3 times with PBS+0.05% Tween 20 using a Tecan PW384. 20 μl of secondary antibody Alexa Fluor 488 anti-Rabbit (Molecular Probes, #A11008) diluted in PBS+0.05% Tween20 containing 1% Marvel™ was added to each well and incubated for 1 h at r.t. Plates were washed three times as before then 20 μl PBS added to each well and plates sealed with a black plate sealer.
The plates were read on an Acumen plate reader as soon as possible, measuring green fluorescence after excitation with 488 nm laser. Using this system IC50 values were generated and quality of plates was determined by control wells. Reference compounds were run each time to monitor assay performance.
The cell plates were then incubated for 2 h at 37° C. before being fixed by the addition of 20 μl 3.7% formaldehyde in PBS/A (1.2% final concentration), followed by a 30 minute room temperature incubation, and then a 2× wash with 150 μl PBS/A using a BioTek ELx406 platewasher. Cells were permeabilised and blocked with 20 μl of assay buffer (0.1% Triton X-100 in PBS/A+1% BSA) for 1 h at room temperature, and then washed 1× with 50 μl PBS/A. Primary phospho-AKT (Ser473) D9E XP® rabbit monoclonal antibody (#4060, Cell Signaling Technology) was diluted 1:200 in assay buffer, 20 μl added per well, and plates were incubated at 4° C. overnight. Cell plates were washed 3× with 200 μl PBS/T, then 20 μl 1:750 dilution in assay buffer of Alexa Fluor® 488 goat anti-rabbit IgG secondary antibody (#A11008, Molecular Probes, Life Technologies), with a 1:5000 dilution of Hoechst 33342, was added per well. Following a 1 h incubation at room temperature, plates were washed 3× with 200 μl PBS/T, and 40 μl PBS w/o Ca, Mg and Na Bicarb (Gibco #14190-094) was added per well.
Stained cell plates were covered with black seals, and then read on the Cell Insight imaging platform (Thermo Scientific), with a 10× objective. The primary channel (Hoechst blue fluorescence 405 nM, BGRFR_386_23) was used to Autofocus and to count number of events (this provided information about cytotoxicity of the compounds tested). The secondary channel (Green 488 nM, BGRFR_485_20) measured pAKT staining. […]

[1] = pAKT Ser473, Protocol B (*); read-out: Assay d) mTOR Cell IC50

T1 sequence (Q13535 whole entry): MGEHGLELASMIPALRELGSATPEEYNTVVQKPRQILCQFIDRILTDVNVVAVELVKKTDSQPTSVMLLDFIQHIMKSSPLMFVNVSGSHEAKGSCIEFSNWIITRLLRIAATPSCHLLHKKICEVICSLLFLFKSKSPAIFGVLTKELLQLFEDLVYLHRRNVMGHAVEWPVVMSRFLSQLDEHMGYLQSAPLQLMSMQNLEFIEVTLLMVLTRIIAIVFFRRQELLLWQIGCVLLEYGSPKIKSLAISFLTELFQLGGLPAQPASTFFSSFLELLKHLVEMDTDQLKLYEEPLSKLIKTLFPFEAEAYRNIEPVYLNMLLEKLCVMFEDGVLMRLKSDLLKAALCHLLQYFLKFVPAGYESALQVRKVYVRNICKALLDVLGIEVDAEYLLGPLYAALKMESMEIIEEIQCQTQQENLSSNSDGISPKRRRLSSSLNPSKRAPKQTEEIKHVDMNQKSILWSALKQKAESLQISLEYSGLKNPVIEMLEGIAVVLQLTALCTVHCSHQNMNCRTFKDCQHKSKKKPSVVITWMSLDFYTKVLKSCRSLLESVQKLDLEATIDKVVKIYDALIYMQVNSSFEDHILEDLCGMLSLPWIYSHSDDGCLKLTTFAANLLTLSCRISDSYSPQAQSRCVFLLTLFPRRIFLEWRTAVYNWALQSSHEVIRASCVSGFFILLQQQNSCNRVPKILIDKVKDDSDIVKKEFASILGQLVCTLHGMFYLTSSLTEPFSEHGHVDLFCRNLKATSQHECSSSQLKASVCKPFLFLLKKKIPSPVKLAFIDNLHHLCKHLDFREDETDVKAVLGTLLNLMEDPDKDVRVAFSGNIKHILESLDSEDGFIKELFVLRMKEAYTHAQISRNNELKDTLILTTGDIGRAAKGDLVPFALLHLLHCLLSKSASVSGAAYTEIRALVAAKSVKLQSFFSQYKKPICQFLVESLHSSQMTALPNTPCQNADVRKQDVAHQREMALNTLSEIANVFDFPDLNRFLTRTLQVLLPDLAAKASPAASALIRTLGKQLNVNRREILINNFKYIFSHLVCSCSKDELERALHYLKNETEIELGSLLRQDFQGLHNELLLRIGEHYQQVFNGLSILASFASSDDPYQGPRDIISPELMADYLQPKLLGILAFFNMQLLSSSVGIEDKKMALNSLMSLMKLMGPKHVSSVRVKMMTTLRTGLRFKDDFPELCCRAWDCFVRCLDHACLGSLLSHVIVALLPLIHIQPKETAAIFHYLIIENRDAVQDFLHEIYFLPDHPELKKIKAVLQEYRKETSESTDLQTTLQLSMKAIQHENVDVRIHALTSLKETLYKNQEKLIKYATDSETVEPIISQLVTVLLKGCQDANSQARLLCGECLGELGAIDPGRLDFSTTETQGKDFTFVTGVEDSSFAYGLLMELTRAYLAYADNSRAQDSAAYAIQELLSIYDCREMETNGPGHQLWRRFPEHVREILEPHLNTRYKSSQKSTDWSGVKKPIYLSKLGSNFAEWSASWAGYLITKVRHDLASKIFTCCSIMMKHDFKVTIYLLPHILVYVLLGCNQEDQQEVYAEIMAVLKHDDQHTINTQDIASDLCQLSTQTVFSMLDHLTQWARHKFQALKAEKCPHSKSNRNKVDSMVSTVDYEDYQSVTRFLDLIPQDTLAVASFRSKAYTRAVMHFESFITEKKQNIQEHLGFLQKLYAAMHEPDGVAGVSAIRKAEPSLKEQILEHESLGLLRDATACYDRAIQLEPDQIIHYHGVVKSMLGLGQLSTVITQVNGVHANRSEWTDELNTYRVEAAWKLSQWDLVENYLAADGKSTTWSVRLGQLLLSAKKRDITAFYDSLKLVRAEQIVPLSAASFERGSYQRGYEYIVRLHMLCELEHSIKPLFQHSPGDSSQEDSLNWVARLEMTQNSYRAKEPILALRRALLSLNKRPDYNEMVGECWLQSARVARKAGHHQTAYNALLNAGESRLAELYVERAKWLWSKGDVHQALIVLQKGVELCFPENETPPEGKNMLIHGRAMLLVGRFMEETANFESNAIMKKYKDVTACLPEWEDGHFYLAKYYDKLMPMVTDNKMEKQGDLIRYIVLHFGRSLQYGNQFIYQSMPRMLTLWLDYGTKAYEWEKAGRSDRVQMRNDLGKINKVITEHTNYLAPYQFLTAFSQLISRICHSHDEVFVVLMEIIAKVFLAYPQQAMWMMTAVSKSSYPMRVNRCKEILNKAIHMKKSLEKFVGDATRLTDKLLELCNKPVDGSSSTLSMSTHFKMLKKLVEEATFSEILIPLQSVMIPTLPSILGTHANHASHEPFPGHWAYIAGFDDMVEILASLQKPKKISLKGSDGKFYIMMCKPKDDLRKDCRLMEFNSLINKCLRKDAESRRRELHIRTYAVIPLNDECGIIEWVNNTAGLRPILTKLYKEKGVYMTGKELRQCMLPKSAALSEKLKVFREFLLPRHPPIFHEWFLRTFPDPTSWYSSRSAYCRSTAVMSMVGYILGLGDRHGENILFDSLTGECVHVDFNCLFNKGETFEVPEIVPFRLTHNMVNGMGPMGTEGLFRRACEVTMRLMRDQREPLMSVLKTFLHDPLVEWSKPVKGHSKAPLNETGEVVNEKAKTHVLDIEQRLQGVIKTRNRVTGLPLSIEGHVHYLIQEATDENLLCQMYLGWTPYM
T1 sequence (Q8WXE1 whole entry partner): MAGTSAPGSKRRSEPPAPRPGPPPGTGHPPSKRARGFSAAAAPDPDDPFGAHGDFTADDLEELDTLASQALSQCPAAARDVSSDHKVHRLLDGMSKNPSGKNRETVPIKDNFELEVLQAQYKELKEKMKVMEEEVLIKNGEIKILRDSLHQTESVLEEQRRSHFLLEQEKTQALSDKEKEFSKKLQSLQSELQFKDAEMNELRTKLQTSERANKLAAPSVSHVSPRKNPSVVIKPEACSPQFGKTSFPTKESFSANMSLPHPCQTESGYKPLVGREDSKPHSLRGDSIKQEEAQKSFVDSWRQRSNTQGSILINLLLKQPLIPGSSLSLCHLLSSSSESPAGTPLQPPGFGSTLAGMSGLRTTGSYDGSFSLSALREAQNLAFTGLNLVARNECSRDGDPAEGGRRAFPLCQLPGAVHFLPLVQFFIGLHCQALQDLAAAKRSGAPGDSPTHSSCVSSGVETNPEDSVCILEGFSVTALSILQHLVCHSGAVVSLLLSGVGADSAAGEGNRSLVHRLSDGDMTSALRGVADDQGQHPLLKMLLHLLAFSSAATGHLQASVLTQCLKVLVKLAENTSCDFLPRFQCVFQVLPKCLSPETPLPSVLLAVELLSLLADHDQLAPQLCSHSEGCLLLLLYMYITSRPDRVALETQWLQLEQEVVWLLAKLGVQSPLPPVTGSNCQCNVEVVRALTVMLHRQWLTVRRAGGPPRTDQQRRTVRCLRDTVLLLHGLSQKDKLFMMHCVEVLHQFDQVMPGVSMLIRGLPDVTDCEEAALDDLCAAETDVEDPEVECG
Sequence of PI3K-α (P42336 whole entry): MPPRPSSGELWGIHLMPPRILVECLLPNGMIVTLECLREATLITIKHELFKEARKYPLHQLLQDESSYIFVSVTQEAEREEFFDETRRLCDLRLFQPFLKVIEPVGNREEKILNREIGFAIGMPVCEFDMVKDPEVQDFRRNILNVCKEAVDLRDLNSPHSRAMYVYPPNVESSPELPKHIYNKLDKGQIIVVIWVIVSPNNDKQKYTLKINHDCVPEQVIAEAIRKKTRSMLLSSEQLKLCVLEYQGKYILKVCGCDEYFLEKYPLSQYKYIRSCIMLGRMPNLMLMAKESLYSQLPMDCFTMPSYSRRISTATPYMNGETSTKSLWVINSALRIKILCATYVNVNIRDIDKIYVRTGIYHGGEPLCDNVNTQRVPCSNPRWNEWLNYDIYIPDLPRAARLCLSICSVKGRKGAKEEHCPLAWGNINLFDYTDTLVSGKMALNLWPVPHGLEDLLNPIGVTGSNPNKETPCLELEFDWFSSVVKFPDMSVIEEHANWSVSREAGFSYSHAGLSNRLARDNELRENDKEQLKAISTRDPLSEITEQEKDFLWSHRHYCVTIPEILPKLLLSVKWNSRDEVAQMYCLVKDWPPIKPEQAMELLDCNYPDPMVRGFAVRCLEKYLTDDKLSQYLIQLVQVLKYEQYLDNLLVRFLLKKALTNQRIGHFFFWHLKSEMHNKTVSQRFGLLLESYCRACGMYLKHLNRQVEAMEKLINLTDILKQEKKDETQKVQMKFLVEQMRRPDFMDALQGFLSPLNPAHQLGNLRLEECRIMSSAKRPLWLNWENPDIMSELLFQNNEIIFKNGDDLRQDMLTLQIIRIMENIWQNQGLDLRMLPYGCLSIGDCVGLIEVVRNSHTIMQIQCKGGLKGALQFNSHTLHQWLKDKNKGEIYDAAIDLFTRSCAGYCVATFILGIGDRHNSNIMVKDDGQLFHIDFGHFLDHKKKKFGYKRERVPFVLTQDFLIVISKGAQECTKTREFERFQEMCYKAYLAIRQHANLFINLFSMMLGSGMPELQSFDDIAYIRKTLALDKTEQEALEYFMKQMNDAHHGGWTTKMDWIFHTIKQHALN

Cn1c(=O)n(C2CC2)c2c3cc(-c4cnc5[nH]ccc5c4)ccc3ncc21 [CN102399218A Compound 62, reference compound]
pIC50 (ATR kinase): 7.26 | pIC50 (ATM kinase): 6.87

CC(C)n1c(=O)n(C)c2cnc3cc(F)c(-c4ccc(OCCCN(C)C)nc4)cc3c21 [Example 1, 8-[6-[3-(Dimethylamino)propoxy]-3-pyridyl]-7-fluoro-1-isopropyl-3-methyl-imidazo[4,5-c]quinolin-2-one]
pIC50 (ATR kinase): < 4.52 | pIC50 (PI3K-α): 4.87 | pIC50 (mTOR; [1]): < 4.52

CC(C)n1c(=O)n(C)c2cnc3ccc(-c4ccc(OCCCN5CCCCC5)nc4)cc3c21 [Example 5, 1-Isopropyl-3-methyl-8-[6-[3-(l-piperidyl)propoxy]-3-pyridyl]imidazo[4,5-c]quinolin-2-one]
pIC50 (PI3K-α): 5.91 | pIC50 (mTOR; [1]): 5.17

CC(C)n1c(=O)n(C)c2cnc3cc(F)c(-c4ccc(OCCCN(C)C)nc4F)cc3c21 [Example 11, 8-[6-[3-(dimethylamino)propoxy]-2-fluoro-3-pyridyl]-7-fluoro-1-isopropyl-3-methyl-imidazo[4,5-c]quinolin-2-one]
pIC50 (ATR kinase): < 4.52 | pIC50 (mTOR; pAKT Ser473, Protocol A (§); read-out: Assay d) mTOR Cell IC50): 4.63 | pIC50 (ATM kinase): 8.64

CC(C)n1c(=O)n(C)c2cnc3ccc(-c4ccc(OCCCN5CCC5)nc4F)cc3c21 [Example 15, 8-[6-[3-(azetidin-1-yl)propoxy]-2-fluoro-3-pyridyl]-1-isopropyl-3-methyl-imidazo[4,5-c]quinolin-2-one]
pIC50 (ATR kinase): < 4.52 | pIC50 (mTOR; [1]): < 6.52 | pIC50 (ATM kinase): 8.67

CC(C)n1c(=O)[nH]c2cnc3cc(F)c(-c4ccc(OCCCN(C)C)nc4)cc3c21 [Example 17, 8-[6-[3-(Dimethylamino)propoxy]-3-pyridyl]-7-fluoro-1-isopropyl-3H-imidazo[4,5-c]quinolin-2-one]
pIC50 (ATR kinase): < 4.52 | pIC50 (mTOR; [1]): < 5.00 | pIC50 (ATM kinase): 8.34

— patent publication US10457679B2, “Imidazo[4,5-c]quinolin-2-one compounds and their use in treating cancer” (AstraZeneca AB, priority 2015, dated 2019)
